For data set [1], the system named is P. falciparum NF54 strain. In words: P. falciparum NF54 [3H]hypoxanthine incorporation assay, 72 h, 0.5% Albumax. It is filed as cell-based.
In data set [2] the test system is P. falciparum NF54 strain. In words: P. falciparum NF54 24 h assay (species shift assay). Format: cell-based. To be noted: read-out: IC50 Pf NF54, 24 h.
The test system of data set [3] is P. berghei (GFP ANKA malaria strain). In words: In vitro efficacy testing with P. berghei, 24 h (species shift assay). Format: cell-based.
The test system of data set [4] is P. falciparum NF54 strain. The data set can be described thus: Serum shift assay, P. falciparum NF54 72 h in 50% human serum. To be noted: read-out: IC50 NF54 72 h, 50% Human Serum.
Data set [5] can be described thus: Thermodynamic aqueous solubility (shake-flask, PBS-10% DMSO). Format: physicochemical. To be noted: PBS with 10% DMSO, aqueous with cosolvent or surfactant or cyclodextrin, PBS pH 7.4, 10% DMSO, 20 °C, read-out: Thermodynamic aq. Solubility in PBS-10% DMSO. The method, then: Thermodynamic Aqueous Solubility: The shake-flask method enabled us to determine the apparent thermodynamic solubilities of the DMSO stock solutions of the compounds. […] The mixture was equilibrated at 20 °C for 24 h. After centrifugation, the supernatant was injected into an HPLC column coupled to an LC-MS apparatus (with UV–Vis detection) in order to determine the compound concentration. […] These solutions were also injected in order to calibrate the concentration determination process. […] Measurements were performed in duplicate.

The subject of data set [6] is P. falciparum NF54 strain. To be noted: cited from earlier work.
The nature of data set [7]: Chromatographic Hydrophobicity Index (CHI) by HPLC. To be noted: for CHI: Chromatographic Hydrophobicity Index, lipophilicity index; for chromatographic logD: pH 7.4, read-out: log D7.4. It is filed as physicochemical. The method, then:
Determination of CHI values: Compound lipophilicity influences permeability and propensity to nonspecific binding to plasma proteins. Although precise, the classical “shake flask” method is not always appropriate for the determination of high hydrophobicity, which can be alternatively measured using the Chromatographic Hydrophobicity Index method. This HPLC-based technique leads to rapid and cheap estimates of partition coefficients. […] A measure of 5 μL was injected onto the HPLC (with UV–Vis detection). […] The measurements were performed in duplicate. […] The CHI is approximately equal to the proportion of acetonitrile in the mobile phase when the compound is eluted from the column.

Data set [8] concerns rat myoblast cell line (L6 cells). To be noted: cited from earlier work.
Setting [9] is: Plasmodium falciparum, NF54, 72 h.
[10] abbreviates: Plasmodium falciparum, NF54, as stated in text, read-out: IC50 against P. falciparum NF54.

What is called solubility (thermodynamic) is solubility found after equilibrating the solid with the medium.

Structures are written as SMILES. ≈ marks a conversion by molar mass, not a printed value. Where two headings read alike, the source gives them in different places.

In the case of `CC1=C(Cc2ccc(OC(F)(F)F)cc2)C(=O)c2ccccc2C1=O` [A-b-3], the IC50 in data set [1] (setting [9]) is 0.083 µM; in data set [1] (Plasmodium falciparum, NF54, 72 h, read-out: IC50 NF54 72 h, 0.5% Albumax), 0.083 µM; in data set [1] (Plasmodium falciparum, NF54, 72 h, read-out: IC50 Pf NF54, 72 h) it was 0.083 µM; in data set [1] (Plasmodium falciparum, NF54, read-out: IC50 against P. falciparum NF54), under 0.1 µM; in data set [2] (Plasmodium falciparum, NF54, 24 h), 0.223 µM; in data set [3] (Plasmodium berghei, 24 h, read-out: IC50 Pb, 24 h) it was 0.191 µM. Also, in data set [4] (setting [9]), the IC50 stood at 0.473 µM.

As for `CC1=C(Cc2ccc(C#N)cc2)C(=O)c2ccccc2C1=O` [A-b-10], in data set [5], the thermodynamic solubility at 24 h was 0.82 ± 0.01 µM (≈ 0.236 µg/mL). Besides, the IC50 in data set [1] (setting [10]) was over 0.2 µM; in data set [6] (grey line ref 8), 0.374 µM. The compound also showed a CHI in data set [7] of 97. In addition, in data set [7], the chromatographic logD was 3.75. Also, in data set [8] (grey line ref 8), the Tox/L6 is given as 112.5 µM.

Regarding `COc1ccc(CC2=C(C)C(=O)c3ccccc3C2=O)cc1` [A-b-16], the solubility (thermodynamic) at 24 h in data set [5] was found to be 1.07 ± 0.02 µM (≈ 0.313 µg/mL). Moreover, in data set [7], the CHI stood at 106 and the chromatographic logD came to 4.22.

In the case of `COc1ccc(OC)c(CC2=C(C)C(=O)c3ccccc3C2=O)c1` [A-b-26], the thermodynamic solubility at 24 h in data set [5] was determined as 0.59 ± 0.01 µM (≈ 0.19 µg/mL). Further, the IC50 in data set [6] (grey line ref 9) is 0.067 µM. In data set [7], the CHI is reported as 107 and the chromatographic logD came out at 4.26. Further, the Tox/L6 in data set [8] (grey line ref 9) is 158.5 µM.

Take `C[C@H]1[C@H](OC(=O)CCC(=O)O)O[C@@H]2O[C@@]3(C)CC[C@H]4[C@H](C)CC[C@@H]1[C@@]24OO3` [AS, artesunate, reference compound]: the IC50 came out at 0.0048 µM in data set [1] (Plasmodium falciparum, NF54, 72 h, read-out: IC50 Pf NF54, 72 h, Table 5A, species shift experiment); 0.013 µM in data set [3] (Plasmodium berghei, read-out: IC50 Pb, P. berghei, 24 h assay); 0.001 µM in data set [4] (setting [9]).

`CC1=C(Cc2cccc(C(F)(F)F)c2)C(=O)c2ccccc2C1=O` [B-b-1]: the IC50 in data set [1] (setting [10]) is under 0.1 µM; in data set [6] (grey line ref 9), 0.062 µM. For the same compound, the Tox/L6 in data set [8] (grey line ref 9) was 57.1 µM.

Turning to `CC1=C(Cc2ccccc2C(F)(F)F)C(=O)c2ccccc2C1=O` [B-b-2], the IC50 is under 0.1 µM in data set [1] (setting [10]) and 0.026 µM in data set [6] (grey line ref 9). Moreover, in data set [8] (grey line ref 9), the Tox/L6 is 249.8 µM.

As to `CC1=C(Cc2ccc(I)cc2)C(=O)c2ccccc2C1=O` [B-b-13], in data set [6] (grey line ref 9), the IC50 is 0.115 µM. Further, in data set [8] (grey line ref 9), the Tox/L6 is reported as 138.6 µM.

For the compound `CC1=C(Cc2ccc([N+](=O)[O-])c(F)c2)C(=O)c2ccccc2C1=O` [B-b-32], the IC50 in data set [6] (grey line ref 9) is 0.598 µM. Further, in data set [8] (grey line ref 9), the Tox/L6 is on record as 189.2 µM.

With `COc1cc(CC2=C(C)C(=O)c3ccccc3C2=O)cc(OC)c1` [B-b-35], the thermodynamic solubility at 24 h in data set [5] worked out at 0.75 ± 0.14 µM (≈ 0.242 µg/mL). Moreover, the IC50 in data set [1] (setting [10]) is under 0.1 µM. In addition, in data set [6] (grey line ref 9), the IC50 was 0.052 µM. In data set [7], the CHI came out at 107 and the chromatographic logD is 4.27. For the same compound, in data set [8] (grey line ref 9), the Tox/L6 was 70.3 µM.

With `CCN(CC)CCCC(C)Nc1ccnc2cc(Cl)ccc12` (stereo not shown) [CQ, reference compound], the IC50 turned out to be 0.005 µM in data set [1] (read-out: IC50 NF54 72 h, 0.5% Albumax, Table 5B, 0.5% Albumax); 0.011 µM in data set [1] (read-out: IC50 Pf NF54, 72 h, Table 5A, species shift experiment); 0.0049 µM in data set [2] (24 h assay); 0.016 µM in data set [3] (read-out: IC50 Pb, 24 h, P. berghei, 24 h assay); 0.0066 µM in data set [4].

Turning to `O=C1C(O)=C([C@H]2CC[C@H](c3ccc(Cl)cc3)CC2)C(=O)c2ccccc21` [atovaquone, reference compound], in data set [5], the solubility (thermodynamic) at 24 h was determined as 1.55 ± 0.04 µM (≈ 0.569 µg/mL).
